The record followed here is a melting point compilation (Tetko et al.; mined from patent text by program, amines drawn as free bases though some values may be those of a salt).

Usually melting point stands for the temperature, or range, at which the solid turns liquid. Regarding `CC(=O)N1CCC(c2ccccc2)c2cccc(CCN3CCN(c4nsc5ccccc45)CC3)c21` (configuration not stated), the melting point was determined as 97 °C. Turning to `Cc1ccc(N(C)S(=O)(=O)c2cccs2)c2[nH]c(-c3ncc(CO)s3)cc12`, the melting point is 184 to 185 °C. Take `CCCCC1(CCCC)CS(=O)(=O)c2ccc(N(C)C)cc2[C@@H](c2ccc(OCCCCCN(CC(=O)O)CC(=O)O)cc2)[C@H]1O`: the melting point lay in the range of 148 to 162 °C. Consider `Cc1cc(C(C#N)=CN(C)C)ccn1`, for which the melting point was found to be 126 °C. In turn, `CC(C)(C)OC(=O)N(C[C@H](O)COc1ccc(OCc2ccccc2)cc1)C1CN(C(c2ccccc2)c2ccccc2)C1` came in with a melting point of 95 to 96 °C. In turn, `O=C(CCC(O)c1ccccc1)N1CCCCC1` (configuration not stated) showed a melting point of 42 to 44 °C. `CC(C)Oc1c(C(=O)O)n(C)c2ccc(OCc3ccccc3)cc12` had a melting point of 136 °C. The value for `COc1ccc(Nc2nc(-c3ccccc3)c(C(=O)c3sc(Nc4ccc(OC)cc4)nc3-c3ccccc3)s2)cc1` was more than 285 °C. With `COC(=O)C1(C)CN(C(=O)Nc2c(C)noc2C)N=C1c1ccc(Cl)cc1` (configuration not stated), the melting point is 214 to 216 °C. The value for `CCCCCOC(=O)CCNCC(O)COc1ccccc1C#N` (configuration not stated) was 91 °C; that for `O=C1NC(=O)c2c1c(-c1ccccc1)c(-c1ccccc1)c1[nH]c3ccc(O)cc3c21` was more than 300 °C. In the case of `CCOP(=O)(Cc1ccc(C(=O)N2CCc3ccccc32)cc1)OCC` it was 93 to 94.5 °C. Compound `Cc1cc(F)c(Br)cc1CC(=O)O` showed a melting point of 100 to 101 °C. Take `CS(=O)(=O)Nc1cccc(Nc2nc(N3CCC[C@H]3CO)c3nc[nH]c3n2)c1`: the melting point is 192 to 197 °C. As to `CC(=O)OC1CCC2(C)C(=CCC3C2CCC2(C)C(n4ccnn4)=CCC32)C1` (configuration not stated), the melting point was 158 to 160 °C. `Cn1cc(C2=C(c3cn4c5c(cccc35)CCC4)C(=O)OC2=O)c2ccccc21`: the melting point fell in the range of 217 to 219 °C. `c1ccc2nc(N3CCN(Cc4n[nH]c5ccccc45)CC3)ccc2c1`: the melting point was in the range of 187 to 188 °C.

For the compound `Cn1c2c(cnc3ccccc32)c(=O)n1-c1ccc(Cl)cc1`, the melting point fell in the range of 158 to 161 °C. The compound `CCCCc1csc2ccc([N+](=O)[O-])cc12` came in with a melting point of 82 to 83 °C. Compound `CC(=O)c1c(C)[nH]c(C(C)CC(C)C)c1C` (configuration not stated) came in with a melting point of 140 to 142 °C.

As to `COc1c(N2CCC(n3cncn3)C2)c(F)cc2c(=O)c(C(=O)O)cn(C3CC3)c12` (configuration not stated), the melting point was in the range of 221 to 222 °C.

In turn, `c1coc(Cn2c(NC3CCNCC3)nc3cccnc32)c1` registered a melting point of 159 °C.

As for `Cc1cc(-c2c(F)cc3c(=O)c(Cc4ccc(O)cc4)cn(C4CC4)c3c2F)cc(C)n1`, the melting point lay within 258 to 259 °C. For the compound `COC(=O)Cn1ccc2ccc(-c3csc(-c4ccccc4)n3)cc21`, the melting point turned out to be 83 °C. Take `CC1(C)CCONC1=O`: the melting point was 115 to 119 °C.

With `CCN1C(=O)C(C)(C)C(=O)N(C)c2cc(CN(CCn3ccc4oc(C)cc4c3=O)Cc3ccccc3-n3cccn3)ccc21`, the melting point was 123 to 130 °C. For the compound `CNC(=O)c1cc2nc(C(F)(F)F)ccc2c(Cl)c1NC(=O)c1cc(C(F)(F)F)nn1-c1ncccc1Cl`, the melting point was 235 to 237 °C. In turn, `CN1C(=S)CSC=C1c1ccccc1` came in with a melting point of 83 to 85 °C.

Consider `Cc1ccccc1-c1nc(N)ncc1-c1ccc(=O)[nH]n1`, for which the melting point is 313 °C. Consider `O=C(O)CC1CCCc2c1n(Cc1cccc(Cl)c1)c1c(F)cc(F)cc21` (configuration not stated), for which the melting point was 188 to 189 °C. On to `O=C(Nc1ccc(C(=O)N2Cc3ccccc3Cc3ccccc32)cc1)c1sc2ccccc2c1Cl`, for which the melting point lay within 252 to 254 °C. Compound `COc1ccc(CCOC(c2ccccc2)(c2ccccc2)C(O)C(=O)O)cc1OC` (configuration not stated) showed a melting point of 133 to 135 °C. In the case of `CCOC(=O)c1c(N2CCN(C)CC2)c2cc(Cl)ccc2n(C)c1=O` it was 163 to 165 °C; in that of `Fc1ccc(Oc2ccnc3cc(Cl)ccc23)cc1`, 89 to 91 °C. Turning to `CNc1nc(-c2cccc(-c3cnc4ccccc4c3)c2)c2cc(OC)c(OC)cc2n1`, the melting point lay in the range of 218 to 220 °C. For the compound `CCOC(=O)CC(=O)c1cc(F)c(F)c(Cl)c1Cl`, the melting point lay within 52 to 53 °C. As to `CC(C)c1nn(-c2ccccc2)c(-c2ccc(F)cc2)c1C=O`, the melting point fell in the range of 110 to 112 °C. In the case of `O=C(Nc1cccc(S(=O)(=O)Nc2ccccc2)c1)NC1N=C(c2ccccc2F)c2ccccc2N(CC(=O)N2CC3CCC(CC3)C2)C1=O` (racemic), the melting point lay in the range of 181 to 188 °C. `COC(=O)CCCC=C(c1cc(C)c2oc(=O)n(C)c2c1)c1cc(C)c2oc(=O)n(C)c2c1`: the melting point was 164 to 165 °C. Regarding `CC(C)(C)OC(=O)N[C@H](Cc1ccc(C(F)(F)F)cc1)[C@@H](O)c1ccncc1` (racemic), the melting point was 198 to 200 °C. For `CCOc1nn(C(=O)NS(=O)(=O)Nc2c(C)cccc2C(=O)CC)c(=O)n1C`, the melting point worked out at 134 °C.

Take `Cc1cc(O)ccc1NCCc1ccccn1`: the melting point fell in the range of 138 to 140 °C. `CCOC(=O)c1c(Cl)nc2ccc(Br)cc2c1Cl` gave a melting point of 120 to 121 °C. `N#Cc1ccc2c(c1)-c1ccccc1OP2(=O)O` returned a melting point of 240 °C. Consider `COc1cc(Nc2nc3cccc(-c4ccc(C(N)=O)cc4)c3o2)cc(OC)c1OC`, for which the melting point is more than 280 °C. `Nc1nc(N)c2c(n1)CCC(c1ccccc1)C2` (configuration not stated) had a melting point of 223 to 226 °C.

Compound `O=C1Cc2cc(-c3cnc4[nH]c(=O)n(CC5CCCCC5)c4n3)ccc2N1` showed a melting point of 313 to 316 °C.

The compound `Cc1cc(C#N)cc(C(=O)Nc2ccc(F)cc2)n1` registered a melting point of 189 °C.

`CCCCNS(=O)(=O)CC(O)(CCCC)C(O)C(N)CC1CCCCC1` (configuration not stated): the melting point was 164 to 165 °C. In turn, `COc1ccc(-c2nc3cc(F)ccc3s2)cc1OC(=O)c1ccccc1Br` returned a melting point of 220 to 223 °C. For the compound `COc1ccc(CCNc2nc(Cl)ccc2[N+](=O)[O-])cc1OC`, the melting point fell in the range of 132 to 133 °C. The value for `O=C(CN1CCC(n2c(=O)[nH]c3ccccc32)CC1)c1ccc(OCc2ccccc2)c(OCc2ccccc2)c1` was 118 to 120 °C; that for `Nc1nn(-c2ccccc2)cc1C=O` was 129 to 130 °C.

For `O=[N+]([O-])c1ccc(F)cc1CBr`, the melting point was 38 to 41 °C.

`O=C(c1ccc(F)cc1)c1ccc2nc(Cl)nc(-c3cccc(Cl)c3)c2c1`: the melting point stood at 138 °C. For the compound `O=C(O)c1cc(=O)c2cccc(/C=C/c3ccc(OCCCCc4ccccc4)cc3F)c2o1`, the melting point was in the range of 73.4 to 73.5 °C.

`CC1(C)Oc2c(N)cccc2C1=O` came in with a melting point of 80 to 84 °C. `CC(=O)c1cnc2c(NC(=O)c3c(Cl)cccc3Cl)cccc2c1N1CCOCC1` showed a melting point of 231 to 233 °C. Compound `O=C(Nc1ccc2c(c1)C(O)CC2)C(F)(F)F` (configuration not stated) showed a melting point of 123 to 124 °C. The compound `CC(C(=O)c1ccccn1)c1ccc(C2CCCCC2)cc1` (configuration not stated) registered a melting point of 80 to 81 °C. In the case of `O=C(c1cccc(Nc2ncnc3ccccc23)c1)N1CCN(c2ncc(Cc3ccccc3)cn2)CC1` it was 120 to 122 °C; in that of `CCCCCCCc1ccc(-c2ncc(C#N)c(Cl)n2)cc1`, 76.3 to 76.8 °C.

In turn, `COc1cc(CC(COC(C)=O)NC(=O)c2ccccc2)cc2c1OC(C)(C)C2` (configuration not stated) came in with a melting point of 141 to 142 °C. On to `CC(C)c1ccc(-c2ccc(-c3cccc(C(=O)O)c3)s2)cc1`, for which the melting point lay in the range of 233 to 235 °C. For the compound `CCOC(=O)c1cc(-c2csc(-c3cccnc3)n2)[nH]n1`, the melting point was in the range of 105 to 107 °C. On to `CN1CC(C(Oc2ccccc2[N+](=O)[O-])c2ccccc2)OCC1=O` (configuration not stated), for which the melting point fell in the range of 192 to 195 °C.

Compound `COc1ccc(Cc2cnc(N)nc2N)cc1OCCCNS(=O)(=O)c1ccc(NC(C)=O)cc1` yielded a melting point of 96 to 98 °C. `Cc1cccc(C)c1CNc1cc(Br)cc2c1nc(N(C)C)n2C` yielded a melting point of 157 to 158 °C. In turn, `CCCCSC(=S)N1Cc2[nH]c3ccccc3c2CC1C(=O)O` (configuration not stated) yielded a melting point of 163 to 164 °C.

Regarding `O=[N+]([O-])c1cc(Cl)cnc1Oc1ccc(O)cc1`, the melting point was 125 to 126 °C. In turn, `O=Cc1c2ccccc2c(CCCl)c2ccccc12` returned a melting point of 158 to 159 °C. As for `CCCCCc1c(/C=C/C(=O)O)n(C)c2cc(OC)ccc12`, the melting point lay within 157 to 158 °C. In the case of `O=C1c2c(Cl)cccc2-n2cnc(-c3nnc(CCl)o3)c2[C@@H]2CCN12` it was 185 to 189 °C; in that of `CC1CN(S(C)(=O)=O)Cc2nc3c(N)nc4ccccc4c3n21` (configuration not stated), 258 to 261 °C.

In the case of `CC(=O)N1CCC(C(=O)N2CC[C@@H](N(C)C(=O)c3ccc(Br)cn3)[C@H](c3ccc(Cl)c(Cl)c3)C2)CC1`, the melting point lay in the range of 128 to 130 °C. Compound `COc1cc2c(c3ccccc13)N(C(C)=O)c1ccccc1S2` gave a melting point of 208 to 209 °C.

In turn, `O=C(NC1CCN(CCCOc2ccc3ccc(=O)oc3c2)CC1)c1ccccc1` gave a melting point of 157 to 158 °C.

Regarding `C#CCOc1cc(OCC=C)ccc1-c1nc2ncccc2[nH]1`, the melting point came out at 210 °C.

As to `CCCn1ncc2c(C3C(=O)Nc4ccc(C#N)cc43)ncnc21` (configuration not stated), the melting point was more than 300 °C. In turn, `CC(C)(C)OC(=O)N1CCS(=O)(=O)C1` returned a melting point of 106 to 107 °C. The value for `[N-]=[N+]=NCC1Cc2cc(Cl)cc(-c3ccsc3)c2O1` (configuration not stated) was 50 to 52 °C; that for `CCOCn1cnc2c1c(=O)n(C)c(=O)n2C` was 110 to 112 °C; that for `COc1cc(C(=O)c2csc(Nc3ccc(Cl)cc3)n2)cc(OC)c1OC` was 165 to 166 °C. Take `CN(C(=O)OC(C)(C)C)c1cc(Oc2cccc(-c3ccccc3)c2)ccc1N`: the melting point was in the range of 114 to 115 °C.

As for `O=C1Nc2ccccc2Nc2ncccc21`, the melting point was 295 to 296 °C. In the case of `Cc1nc(Nc2ccccc2)sc1-c1nc2ccccc2c(=O)n1-c1ccccc1` it was 260 to 262 °C; in that of `CCOc1ccc([C@@H]2CCNC(=O)[C@H]2c2ccccc2)cc1` (relative stereo), 161 to 162 °C.
